The values that follow come from patent publication US9185910B2, “Amide compound” (Sumitomo Chemical Company, Limited, priority 2012, dated 2015).

The subject of experiment [1] is Haemaphysalis longicornis. The experiment in a line: Test Example 11: coated screw tube contact test, Haemaphysalis longicornis ticks. It is filed as in vivo. The settings on record: 2 mg compound coated on inner wall of screw tube, non-blood-sucking nymphal ticks, after 2 days. On the procedure:
2 mg of each of Compounds of Present Invention 7, 20, 25, 28, 48, 55, 65 and 110 was weighed in a screw tube (Maruemu No. 5; 27×55 mm), and 0.2 mL of acetone was added thereto and sealed with a cap to dissolve the compound. The screw tube was rotated and inverted to uniformity coat the drug solution onto the whole inner wall of the tube. After removing the cap, the solution was air-dried for about 2 hours, then non-blood-sucking nymphal ticks, Haemaphysalis longicornis (5 ticks/group) were released, and the tube was sealed with the cap. After 2 days, the number of dead ticks was examined, and the death rate was calculated according to the following equation: Death rate (%)=100×(Number of dead ticks/Number of tested ticks).

The subject of experiment [2] is Musca domestica. Briefly: Test Example 8: filter paper with sucrose bait, Musca domestica. It is filed as in vivo. The settings on record: 500 ppm, 0.7 ml on filter paper, female imagoes, after 24 hours. On the procedure:
The formulations of Compounds of Present Invention 31, 41, 55, 62, 64 to 65, 67 to 70, 73 to 75, 88, 119, 124 and 131 as obtained in Formulation Example 5 were diluted with water, so as to have a concentration of the active ingredient of 500 ppm, to prepare a test drug solution.
A filter paper having a diameter of 5.5 cm was spread on the bottom of a polyethylene cup having the same diameter and 0.7 ml of the test drug solution was added dropwise onto the filter paper, and 30 mg of sucrose was uniformly placed as bait. Into the polyethylene cup, 10 female imagoes of Musca domestica were released, and the cup was sealed with a lid. After 24 hours, the life and death of Musca domestica was examined, and the death rate was calculated. Death rate (%)=(Number of dead insects/Number of tested insects)×100

SMILES strings stand for the structures.

Turning to `CCSc1cccnc1C(=O)N(C)c1ccc(C(F)(F)C(F)(F)F)c(Cl)n1` [compound 110], in experiment [1], the “Death rate (%)” value was determined as 100%.
Turning to `CCSc1cccnc1C(=O)Nc1ccc(C(F)(F)F)nc1` [compound 20], the “Death rate (%)” value in experiment [1] is 100%.
For the compound `CCSc1cc(Cl)cnc1C(=O)N(C)c1ccc(C(F)(F)F)cc1` [compound 131], the “Death rate (%)” value in experiment [2] is reported as 100%.
With `CCS(=O)(=O)c1cc(NC(=O)OC)cnc1C(=O)N(C)c1ccc(SC(F)(F)F)cc1` [compound 119], in experiment [2], the “Death rate (%)” value is on record as 100%.
`CCSc1cccnc1C(=O)N(C)c1ccc(I)cn1` [compound 70]: in experiment [2], the “Death rate (%)” value worked out at 100%.
